In one data set the test system is coronary vessels. The experiment in a line: vasodilator action on the coronary vessels: change in the oxygen tension in the coronary veinous blood (narcotized dogs, i.v.). In kind it is in vivo. The conditions noted are these: dog, 0.5 mg./kg. i.v., dihydrochloride. On the procedure:
(§1) With respect to the change in the oxygen tension in the coronary veinous blood, the pharmacological investigation of the vasodilator action on the coronary vessels was carried out in dogs according to the methods described by W.K.A. Schaper and his co-workers (see W.K.A. SCHAPER, R. XHONNEUX, and J.M. BOGAARD "Ueber die kontinuierliche Messung des Sauerstoffdruckes im venoesen Coronarblut" (Naunyn-Schmiedeberg's Arch. exp. Path. u. Pharmak. 245, 383-389 (1963)). The test preparations were applied intravenously to the narcotized and spontaneously breathing animals. On these test conditions the dilatation of the coronary arteries caused by the test substances along with the increase in the coronary blood flow led to an increase in the oxygen tension in the coronary veinous blood. This oxygen tension was measured according to polarographic methods by means of a platin electrode of the Gleichmann-Lubbers type (see U. GLEICHMANN and D.W. LUEBBERS "Die Messung des Sauerstoffdruckes in Gasen and Fluessigkeiten mit der Platin-Elektrode unter besonderer Berucksichtigung der Messung im Blut," Pflugers Arch. 271, 431-455 (1960)). The heart rate was continuously measured by electronic methods from systolic peaks of the arterial blood pressure. The arterial blood pressure was measured in the known manner in the femoral artery with the aid of an electromanometer of the Statham-strain-gauge type.
(§2) The following table gives the results of the pharmacological investigations which were carried through. The preparations were tested in the form of their respective dihydrochlorides: […]

Data set [1] can be described thus: heart rate, continuously measured from systolic peaks of the arterial blood pressure (narcotized dogs, i.v.). The conditions noted are these: dog, 0.5 mg./kg. i.v., dihydrochloride. In kind it is in vivo. Here is the method:
as §1, with “The arterial blood pressure was measured in the known manner in the femoral artery with the aid of an electromanometer of the Statham-strain-gauge type.” left out

Data set [2] in a line: arterial blood pressure in the femoral artery (narcotized dogs, i.v.). Format: in vivo. The conditions noted are these: dog, 0.5 mg./kg. i.v., dihydrochloride. Here is the method: as §1, §2
Another data set can be described thus: LD 50 Mouse. The conditions noted are these: in vivo, iv, dihydrochloride.

Where only a bound is given, the exact number is not on record here.

This note sets out measurements from patent US3959281A, “Piperazino substituted coumarin derivatives” (Cassella Farbwerke Mainkur Aktiengesellschaft, priority 1968, dated 1976).

By LD50 is commonly meant the dose expected to kill half of the subjects tested.

For `COc1ccc(CN2CCN(CC(Cc3c(C)c4ccc(OC)c(OC)c4oc3=O)OC(=O)c3cc(OC)c(OC)c(OC)c3)CC2)cc1OC` (stereo not drawn) [3-[γ-(N-3,4-dimethoxy-benzyl-piperazino)-β-(3,4,5-trimethoxybenzoxy)-propyl]-4-methyl-7,8-dimethoxy-coumarin], the entries for the “Maximal Increase in Oxygen Tension in the Coronary Veinous Blood” value with coronary vessels and in the data set with coronary vessels (duration) were “+60%” and > 25 min, respectively. Also, the “Maximal Change in the Heart Rate” value in data set [1] is -20%; in data set [1] (duration), > 25 min. Also, the “Maximal Change in the Blood Pressure (diastolic)” value in data set [2] (diastolic) is on record as -66%. The “Maximal Change in the Blood Pressure” value in data set [2] (duration) is > 25 min. The “Maximal Change in the Blood Pressure (systolic)” value in data set [2] (systolic) is given as -57%.

As to `COc1cc(C(=O)OC(Cc2c(C)c3ccc(OC)c(OC)c3oc2=O)CN2CCN(CC(=O)Nc3c(C)cccc3C)CC2)cc(OC)c1OC` (stereo not drawn) [3-[γ-{N-(2,6-dimethyl-anilidocarbonylmethyl)-piperazino}-β-(3,4,5-trimethoxybenzoxy)-propyl]-4-methyl-7,8-dimethoxy-courmarin], the “Maximal Increase in Oxygen Tension in the Coronary Veinous Blood” value in the data set on coronary vessels was “+36%”; in the data set on coronary vessels (duration), > 20 min. The LD50 in the data set “LD 50 Mouse” was > 400 mg/kg.
